Test results reported in US8900880B2, “Viral citrullinated peptides and uses thereof” (Toscana Biomarkers S.R.L., priority 2009, dated 2014).
Entries after “also recorded” stand apart in the source; their conditions may differ.

Columns and labels:
[1] = test system: anti-citrullinated peptides/proteins antibodies (ACPA) in serum; settings: 206 disease controls
Protocol: The MAP of the citrullinated peptide antigens according to the invention was diluted to a concentration of 20 μg/ml in phosphate buffered saline (PBS) and loaded into the wells of a polystyrene micro-titration plate (50 μl/well). […] Upon completion of the coating period, the wells containing the antigen, plus an equal number of wells which were used as controls, were treated for 1 hour at room temperature (RT) with 3% bovine serum albumin (BSA) in PBS. The patients' serum samples (diluted 1:200 in a buffer constituted by 1% BSA, 0.05% Tween X-100 in PBS) were then loaded onto the plate (50 μl/well) and left to incubate for 3 hours at RT. After the incubation period, one washing was performed with 1% PBS Tween X-100 and two washings were performed with PBS (150 μl/well). […] Upon completion of the incubation, after three washings as described above, the alkaline phosphatase substrate (p-nitrophenyl phosphate) was added to the wells and, in the presence of the enzyme, it produced a yellow product measurable by spectrophotometric techniques at a wavelength of 405 nm; its quantity was proportional to the titre of antibodies bound. The results of the test were expressed as the percentage of positivity, calculated by dividing the absorbance of each serum sample by the absorbance of a positive serum sample the value of which was set arbitrarily at 100.

[2] = test system: anti-CP antibodies (IgG, IgM, IgA) in patients' serum samples
Protocol: The MAP of the citrullinated peptide antigens according to the invention was diluted to a concentration of 20 μg/ml in phosphate buffered saline (PBS) and loaded into the wells of a polystyrene micro-titration plate (50 μl/well). […] Upon completion of the coating period, the wells containing the antigen, plus an equal number of wells which were used as controls, were treated for 1 hour at room temperature (RT) with 3% bovine serum albumin (BSA) in PBS. The patients' serum samples (diluted 1:200 in a buffer constituted by 1% BSA, 0.05% Tween X-100 in PBS) were then loaded onto the plate (50 μl/well) and left to incubate for 3 hours at RT. After the incubation period, one washing was performed with 1% PBS Tween X-100 and two washings were performed with PBS (150 μl/well). […] The antibody (50 μl/well) was then incubated for 3 hours at RT with agitation. Upon completion of the incubation, after three washings as described above, the alkaline phosphatase substrate (p-nitrophenyl phosphate) was added to the wells and, in the presence of the enzyme, it produced a yellow product measurable by spectrophotometric techniques at a wavelength of 405 nm; its quantity was proportional to the titre of antibodies bound. The results of the test were expressed as the percentage of positivity, calculated by dividing the absorbance of each serum sample by the absorbance of a positive serum sample the value of which was set arbitrarily at 100.
Serum samples of 104 patients suffering from RA, 97 normal healthy subjects (NHS), and 194 disease controls (systemic lupus erythematosus, systemic scleroderma, Sjogren syndrome, mixed cryoglobulinemia, psoriasic arthritis, ankylosing spondilytis, rheumatic polymialgia and infectious mononucleosis) were tested by this method using the peptide of formula (V).

[3] = test system: autoantibodies in RA sera; assay: 79 RA patients tested for anti-CCP2, anti-CCP3, anti-VCP1 and anti-VCP2 (FIG. 1); type: binding, human
Source text: FIG. 1. […] The presence of different populations of autoantibodies is depicted in the block diagram. Number of RA sera positive (+) or negative (−) to anti-CCP2, anti-CCP3, anti-VCP1 [peptide of formula (VI)], and anti-VCP2 [peptide of formula (V)] are shown above the diagram.
Noteworthy, 7/79 (9%) anti-CCP2 and anti-CCP3 negative sera are positive to the peptide of formula (VI); 2/79 (3%) anti-CCP2 and anti-CCP3 negative sera are positive to peptide of formula (V); 1/79 (1%) anti-CCP2 and anti-CCP3 negative serum is positive to both peptides of formula (V) and formula (VI). Thus, formula (V) and (VI) allow to detect antibodies in a subgroup of anti-CCP negative RA patients (FIG. 1).

[4] = test system: anti-VCP2 antibodies (IgG) from RA sera; assay: ELISA of affinity-purified anti-VCP2 antibodies from RA sera (Example 5); type: binding, human; settings: four preparations from 4 different RA sera
Protocol: FIG. 4. Isolation of anti-VCP2 antibodies from RA sera was performed according to the method described in example 4.
A citrullinated peptide or MAP according to the present invention was conjugated to CNBr-activated sepharose according to standard procedures known by one skilled in the art. Total immunoglobulins from sera containing anti-CP antibodies were precipitated with 50% saturated ammonium sulfate; the precipitates were dissolved in phosphate buffer (pH 7.4) and dialyzed overnight against PBS. Enriched immunoglobulin preparations were applied to the column, and the flowthrough was collected for subsequent analysis. The column was extensively washed with 20 mM Na2HPO4, 150 mM NaCl (pH 7.2), and the antibodies bound to the column were eluted by 0.1 M glycine buffer (pH 2.8) (0.5 ml/fraction), immediately neutralized with 50 μl Tris 1M (pH 8.0), and dialyzed overnight against PBS. The anti-CP antibody content in the eluates and flowthrough was tested by ELISA.

[5] = test system: anti-CP IgG antibodies in RA patients' serum; settings: cut-off 97.5th percentile of normal controls
Protocol: The ability to recognize specific antibodies in RA patients by MAP of formula (V), in comparison with the MAP of formula (VI) was evaluated by ELISA.
MAP of formula (V) and MAP of formula (VI) were diluted respectively to a concentration of 20 μg/ml and 5 μg/ml in PBS, loaded into the wells of a polystyrene micro-titration plate (50 μl/well), and left overnight at +4° C. Upon completion of the coating period, the wells were treated for 1 hour at RT with 3% BSA in PBS. The patients' serum samples (diluted 1:200 in a buffer constituted by 1% BSA, 0.05% Tween X-100 in PBS) were then loaded onto the plate (50 μl/well) and left to incubate for 3 hours at RT. After the incubation period, one washing was performed with 1% PBS Tween X-100 and two washings were performed with PBS (150 μl/well). An anti human-IgG antibody conjugated to the enzyme alkaline phosphatase (50 μl/well), diluted 1:3000 in 1% PBS BSA, 0.05% Tween X-100, was incubated for 3 hours at RT with stirring. Upon completion of the incubation, after three washings as described above, p-nitrophenyl phosphate was added to the wells and the absorbance at a wavelength of 405 nm was determined. The results of the test were expressed as the percentage of positivity, calculated by dividing the absorbance of each serum sample by the absorbance of a positive serum sample the value of which was set arbitrarily at 100.
Serum samples of 100 patients suffering from RA were tested by this method.

[6] = test system: IgG antibodies in RA and NHS sera; assay: ELISA with differently citrullinated EBNA-2(338-358) peptides (Example 6); type: binding, human
Source text: The role of the number and of the position of citrullines inside EBNA-2(338-358) sequence in the detection of specific antibodies in RA sera was investigated by means of differently citrullinated peptides (Table 1).
It is believed that these two positions relate to two different antigenic regions.

Substance: (G Q S Cit G Q S Cit G Cit G Cit G Cit G Cit G Cit G K G)4 K2 K beta-Alanine [VCP2]
- specificity in detecting ACPA in RA patients ([1]; 100 RA, 100 NHS): high specificity
- antibodies detected in disease controls ([1]; in particular IM and SLE): no antibodies were detected
- anti-CP antibodies found in normal healthy subjects and disease controls ([2]; 97 NHS and 194 disease controls): less than 5%
- anti-CP IgA antibodies found in RA serum samples ([2]; 104 RA patients (41/104), cut-off 97.5th percentile of normal controls): 40%
- anti-CP IgM antibodies found in RA serum samples ([2]; 104 RA patients (48/104), cut-off 97.5th percentile of normal controls): 46%
- anti-CP IgG antibodies found in RA serum samples ([2]; 104 RA patients (67/104), cut-off 97.5th percentile of normal controls): 64%
- RA sera containing antibodies reacting with either one of the two MAP ([3]; comparison of MAP of formula (V) and MAP of formula (VI)): 15%
- anti-CCP2 and anti-CCP3 negative sera positive to the peptide ([3]; of 79 RA patients): 3%
- anti-CCP2 and anti-CCP3 negative serum positive to both peptides ([3]; of 79 RA patients (1/79)): 1%
- positive RA sera ([3]; population of 79 RA patients): 52%
- reactivity of purified anti-VCP2 IgG with the antigen [4]: very high reactivity
- anti-CP MAP antibodies found in the RA cohort ([5]; 100 RA patients, IgG): 64%
- specificity [5]: 95%

Substance: GQSRGQSRGRGRGRGRGRGKG [EBNA2(338-358), reference compound]
- NHS positive sera ([6]; 23 normal healthy subjects, positive = greater than 97.5th percentile of normal control group): 0/23
- RA positive sera ([6]; 24 RA patients, positive = greater than 97.5th percentile of normal control group): 3/24
- reactivity with RA sera (in words) ([6]; 24 RA sera, relevant = more than 25% positive): does not react with RA sera; also recorded: does not recognize IgG antibodies in a relevant number of RA sera
- reactivity of purified anti-VCP2 IgG with the antigen [4]: no binding
